Results: ChEMBL document CHEMBL4507320, “Data for DCP probe NVS-MALT1” (2021)

How the values were obtained:
[1] = molecular target: Serine/threonine-protein kinase WNK3 (Homo sapiens) (UniProt Q9BYP7); conditions: Compound concentration 1000.0 nM
[2] = molecular target: Serine/threonine-protein kinase/endoribonuclease IRE1 (Homo sapiens) (UniProt O75460); conditions: Compound concentration 1000.0 nM
[3] = molecular target: Serine/threonine-protein kinase BRSK1 (Homo sapiens) (UniProt Q8TDC3); conditions: Compound concentration 1000.0 nM
[4] = molecular target: Dual specificity protein kinase TTK (Homo sapiens) (UniProt P33981); conditions: Compound concentration 1000.0 nM
[5] = system: Leucine-rich repeat serine/threonine-protein kinase 2 (Homo sapiens), Q5S007 [G2019S]; conditions: Compound concentration 1000.0 nM
[6] = molecular target: Phosphatidylinositol 4-kinase beta (Homo sapiens) (UniProt Q9UBF8); conditions: Compound concentration 1000.0 nM
[7] = molecular target: Discoidin domain-containing receptor 2 (Homo sapiens) (UniProt Q16832); conditions: Compound concentration 1000.0 nM
[8] = molecular target: Calcium/calmodulin-dependent protein kinase type II subunit alpha (Homo sapiens) (UniProt Q9UQM7); conditions: Compound concentration 1000.0 nM
[9] = molecular target: Serine/threonine-protein kinase STK11 (Homo sapiens) (UniProt Q15831); conditions: Compound concentration 1000.0 nM
[10] = molecular target: GABA-A receptor; anion channel (Rattus norvegicus) (UniProt O09028+P15431+P18506+P18508+P19969+P20236+P23574+P23576+P28471+P28473+P30191+P62813+P63079+P63138+Q91ZM7+Q9ES14); conditions: Compound concentration 10.0 uM
[11] = molecular target: Platelet-derived growth factor receptor beta (Homo sapiens) (UniProt P09619); conditions: Compound concentration 1000.0 nM
[12] = system: Receptor-type tyrosine-protein kinase FLT3 (Homo sapiens), P36888 [D835H]; conditions: Compound concentration 1000.0 nM
[13] = molecular target: 5'-AMP-activated protein kinase catalytic subunit alpha-2 (Homo sapiens) (UniProt P54646); conditions: Compound concentration 1000.0 nM
[14] = molecular target: Serine/threonine-protein kinase WNK1 (Homo sapiens) (UniProt Q9H4A3); conditions: Compound concentration 1000.0 nM
[15] = system: Mast/stem cell growth factor receptor Kit (Homo sapiens), P10721 [D816H]; conditions: Compound concentration 1000.0 nM
[16] = molecular target: Ribosomal protein S6 kinase alpha-2 (Homo sapiens) (UniProt Q15349); conditions: Compound concentration 1000.0 nM
[17] = molecular target: D(1A) dopamine receptor (Homo sapiens) (UniProt P21728); conditions: Compound concentration 10.0 uM
[18] = molecular target: MAP kinase-activated protein kinase 2 (Homo sapiens) (UniProt P49137); conditions: Compound concentration 1000.0 nM
[19] = molecular target: Casein kinase II subunit alpha' (Homo sapiens) (UniProt P19784); conditions: Compound concentration 1000.0 nM
[20] = molecular target: Serine/threonine-protein kinase PLK1 (Homo sapiens) (UniProt P53350); conditions: Compound concentration 1000.0 nM
[21] = molecular target: Tyrosine-protein kinase ABL1 (Homo sapiens) (UniProt P00519); conditions: Compound concentration 1000.0 nM
[22] = molecular target: cAMP-dependent protein kinase catalytic subunit PRKX (Homo sapiens) (UniProt P51817); conditions: Compound concentration 1000.0 nM
[23] = molecular target: Serine/threonine-protein kinase Nek6 (Homo sapiens) (UniProt Q9HC98); conditions: Compound concentration 1000.0 nM
[24] = molecular target: Macrophage colony-stimulating factor 1 receptor (Homo sapiens) (UniProt P07333); conditions: Compound concentration 1000.0 nM
[25] = molecular target: Dual serine/threonine and tyrosine protein kinase (Homo sapiens) (UniProt Q6XUX3); conditions: Compound concentration 1000.0 nM
[26] = molecular target: Casein kinase I isoform alpha (Homo sapiens) (UniProt P48729); conditions: Compound concentration 1000.0 nM
[27] = molecular target: Macrophage colony-stimulating factor 1 receptor (Homo sapiens) (UniProt P07333); conditions: Compound concentration 1000.0 nM; remark: listed apart in the source
[28] = molecular target: Ribosomal protein S6 kinase alpha-2 (Homo sapiens) (UniProt Q15349); conditions: Compound concentration 1000.0 nM; remark: listed apart in the source
[29] = molecular target: Serine/threonine-protein kinase MRCK gamma (Homo sapiens) (UniProt Q6DT37); conditions: Compound concentration 1000.0 nM
[30] = molecular target: Alpha-1D adrenergic receptor (Homo sapiens) (UniProt P25100); conditions: Compound concentration 10.0 uM
[31] = molecular target: Casein kinase I isoform gamma-3 (Homo sapiens) (UniProt Q9Y6M4); conditions: Compound concentration 1000.0 nM
[32] = molecular target: Serine/threonine-protein kinase NIM1 (Homo sapiens) (UniProt Q8IY84); conditions: Compound concentration 1000.0 nM
[33] = system: Proto-oncogene tyrosine-protein kinase receptor Ret (Homo sapiens), P07949 [M918T]; conditions: Compound concentration 1000.0 nM
[34] = molecular target: Fibroblast growth factor receptor 1 (Homo sapiens) (UniProt P11362); conditions: Compound concentration 1000.0 nM
[35] = molecular target: Proto-oncogene tyrosine-protein kinase ROS (Homo sapiens) (UniProt P08922); conditions: Compound concentration 1000.0 nM
[36] = molecular target: Eukaryotic translation initiation factor 2-alpha kinase 1 (Homo sapiens) (UniProt Q9BQI3); conditions: Compound concentration 1000.0 nM
[37] = molecular target: Serine/threonine-protein kinase DCLK3 (Homo sapiens) (UniProt Q9C098); conditions: Compound concentration 1000.0 nM
[38] = molecular target: Serine/threonine-protein kinase PknB (Mycobacterium tuberculosis) (UniProt P9WI81); conditions: Compound concentration 1000.0 nM
[39] = molecular target: Receptor-interacting serine/threonine-protein kinase 1 (Homo sapiens) (UniProt Q13546); conditions: Compound concentration 1000.0 nM
[40] = molecular target: Mitogen-activated protein kinase 10 (Homo sapiens) (UniProt P53779); conditions: Compound concentration 1000.0 nM
[41] = molecular target: Tyrosine-protein kinase TXK (Homo sapiens) (UniProt P42681); conditions: Compound concentration 1000.0 nM
[42] = molecular target: Serine/threonine-protein kinase ICK (Homo sapiens) (UniProt Q9UPZ9); conditions: Compound concentration 1000.0 nM
[43] = molecular target: MAP kinase-interacting serine/threonine-protein kinase 1 (Homo sapiens) (UniProt Q9BUB5); conditions: Compound concentration 1000.0 nM

Sequence of Macrophage colony-stimulating factor 1 receptor (Homo sapiens) (P07333 whole entry): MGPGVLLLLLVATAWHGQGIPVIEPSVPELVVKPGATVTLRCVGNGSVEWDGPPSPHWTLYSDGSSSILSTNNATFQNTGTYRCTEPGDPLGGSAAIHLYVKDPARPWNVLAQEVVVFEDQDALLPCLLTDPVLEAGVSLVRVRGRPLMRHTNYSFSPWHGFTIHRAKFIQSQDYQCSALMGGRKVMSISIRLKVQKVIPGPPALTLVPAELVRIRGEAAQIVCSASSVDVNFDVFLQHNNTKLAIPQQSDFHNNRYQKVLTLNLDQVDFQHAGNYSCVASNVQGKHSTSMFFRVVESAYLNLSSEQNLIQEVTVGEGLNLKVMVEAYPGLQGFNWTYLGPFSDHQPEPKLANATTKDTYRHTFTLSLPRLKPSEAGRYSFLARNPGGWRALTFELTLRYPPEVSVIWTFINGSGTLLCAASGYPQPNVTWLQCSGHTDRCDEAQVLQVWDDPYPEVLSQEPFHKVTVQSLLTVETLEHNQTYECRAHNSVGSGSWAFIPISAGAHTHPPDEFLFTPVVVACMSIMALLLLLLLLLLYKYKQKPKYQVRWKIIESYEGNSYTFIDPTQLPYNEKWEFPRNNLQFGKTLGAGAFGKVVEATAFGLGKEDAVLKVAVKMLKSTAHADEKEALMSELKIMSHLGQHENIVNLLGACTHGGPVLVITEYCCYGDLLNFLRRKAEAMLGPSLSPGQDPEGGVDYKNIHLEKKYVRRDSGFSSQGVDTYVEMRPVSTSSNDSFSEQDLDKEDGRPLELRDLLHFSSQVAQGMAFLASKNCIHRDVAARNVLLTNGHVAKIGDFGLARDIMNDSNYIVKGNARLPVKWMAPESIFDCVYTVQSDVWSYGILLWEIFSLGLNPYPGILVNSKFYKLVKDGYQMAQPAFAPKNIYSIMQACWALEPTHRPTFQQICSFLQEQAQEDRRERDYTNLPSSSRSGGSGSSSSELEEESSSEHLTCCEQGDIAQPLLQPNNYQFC
Sequence of Ribosomal protein S6 kinase alpha-2 (Homo sapiens) (Q15349 whole entry): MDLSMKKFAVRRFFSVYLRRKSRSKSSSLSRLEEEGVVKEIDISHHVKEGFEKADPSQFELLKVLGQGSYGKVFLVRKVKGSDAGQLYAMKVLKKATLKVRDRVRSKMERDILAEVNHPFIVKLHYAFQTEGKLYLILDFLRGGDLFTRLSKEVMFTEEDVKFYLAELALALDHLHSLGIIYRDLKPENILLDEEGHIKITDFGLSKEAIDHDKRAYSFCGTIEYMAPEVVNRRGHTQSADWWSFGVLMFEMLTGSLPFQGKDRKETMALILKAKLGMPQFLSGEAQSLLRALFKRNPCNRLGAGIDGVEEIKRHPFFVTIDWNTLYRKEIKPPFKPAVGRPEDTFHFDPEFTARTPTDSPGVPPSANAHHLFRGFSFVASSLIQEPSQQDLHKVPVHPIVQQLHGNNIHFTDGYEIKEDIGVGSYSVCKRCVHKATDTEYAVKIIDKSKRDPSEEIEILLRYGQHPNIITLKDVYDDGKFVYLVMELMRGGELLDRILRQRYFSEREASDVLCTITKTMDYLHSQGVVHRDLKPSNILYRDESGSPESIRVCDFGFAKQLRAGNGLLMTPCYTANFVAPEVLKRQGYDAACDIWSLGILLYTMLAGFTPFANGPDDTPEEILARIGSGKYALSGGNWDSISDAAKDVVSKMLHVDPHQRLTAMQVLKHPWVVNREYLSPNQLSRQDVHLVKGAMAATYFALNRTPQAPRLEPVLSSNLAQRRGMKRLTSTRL
Sequence of Casein kinase I isoform gamma-3 (Homo sapiens) (Q9Y6M4 whole entry, looked up, canonical isoform): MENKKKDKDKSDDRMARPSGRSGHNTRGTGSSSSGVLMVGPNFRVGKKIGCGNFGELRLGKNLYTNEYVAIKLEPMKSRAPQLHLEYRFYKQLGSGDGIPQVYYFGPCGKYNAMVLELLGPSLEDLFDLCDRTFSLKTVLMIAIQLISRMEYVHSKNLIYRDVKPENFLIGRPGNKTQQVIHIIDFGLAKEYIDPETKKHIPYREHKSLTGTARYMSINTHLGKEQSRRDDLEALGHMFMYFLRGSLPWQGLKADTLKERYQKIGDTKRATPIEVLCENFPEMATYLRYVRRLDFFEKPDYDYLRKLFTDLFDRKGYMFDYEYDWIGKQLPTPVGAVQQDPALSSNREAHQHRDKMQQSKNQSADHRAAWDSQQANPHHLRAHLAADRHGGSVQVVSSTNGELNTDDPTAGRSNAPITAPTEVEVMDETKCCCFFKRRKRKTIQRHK
Sequence of Receptor-interacting serine/threonine-protein kinase 1 (Homo sapiens) (Q13546 whole entry): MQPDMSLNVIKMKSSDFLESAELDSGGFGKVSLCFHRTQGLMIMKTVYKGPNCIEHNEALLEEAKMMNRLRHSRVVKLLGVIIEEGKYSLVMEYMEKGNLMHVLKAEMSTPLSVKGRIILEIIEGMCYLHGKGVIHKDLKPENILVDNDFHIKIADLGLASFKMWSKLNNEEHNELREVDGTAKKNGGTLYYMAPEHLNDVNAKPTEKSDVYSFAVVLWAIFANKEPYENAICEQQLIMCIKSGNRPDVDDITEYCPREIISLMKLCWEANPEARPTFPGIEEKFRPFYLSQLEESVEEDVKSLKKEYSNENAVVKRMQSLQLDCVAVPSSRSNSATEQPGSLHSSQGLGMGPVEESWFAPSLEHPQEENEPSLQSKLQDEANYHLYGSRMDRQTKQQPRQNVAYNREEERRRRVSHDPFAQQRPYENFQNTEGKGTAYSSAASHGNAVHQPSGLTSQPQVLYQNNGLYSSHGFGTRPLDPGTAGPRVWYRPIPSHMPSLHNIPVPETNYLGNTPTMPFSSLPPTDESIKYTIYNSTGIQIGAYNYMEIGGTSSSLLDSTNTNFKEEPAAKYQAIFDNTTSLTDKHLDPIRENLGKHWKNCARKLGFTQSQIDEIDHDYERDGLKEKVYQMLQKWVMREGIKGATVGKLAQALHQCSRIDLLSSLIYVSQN
Sequence of Serine/threonine-protein kinase PLK1 (Homo sapiens) (P53350 whole entry): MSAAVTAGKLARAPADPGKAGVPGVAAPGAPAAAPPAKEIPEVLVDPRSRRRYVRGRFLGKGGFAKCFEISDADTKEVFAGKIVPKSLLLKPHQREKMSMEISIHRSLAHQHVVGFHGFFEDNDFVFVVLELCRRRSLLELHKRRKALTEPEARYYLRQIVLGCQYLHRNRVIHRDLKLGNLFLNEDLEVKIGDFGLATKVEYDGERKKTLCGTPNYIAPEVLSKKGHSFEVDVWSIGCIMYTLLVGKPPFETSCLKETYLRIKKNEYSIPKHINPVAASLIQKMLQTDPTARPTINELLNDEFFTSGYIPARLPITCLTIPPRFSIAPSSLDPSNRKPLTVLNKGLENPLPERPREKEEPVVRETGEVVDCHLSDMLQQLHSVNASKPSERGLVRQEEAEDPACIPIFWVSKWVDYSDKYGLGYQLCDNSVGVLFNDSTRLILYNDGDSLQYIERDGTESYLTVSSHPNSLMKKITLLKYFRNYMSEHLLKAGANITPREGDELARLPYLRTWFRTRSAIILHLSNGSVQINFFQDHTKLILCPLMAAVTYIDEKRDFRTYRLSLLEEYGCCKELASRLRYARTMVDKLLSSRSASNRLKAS
Sequence of MAP kinase-activated protein kinase 2 (Homo sapiens) (P49137 whole entry, looked up): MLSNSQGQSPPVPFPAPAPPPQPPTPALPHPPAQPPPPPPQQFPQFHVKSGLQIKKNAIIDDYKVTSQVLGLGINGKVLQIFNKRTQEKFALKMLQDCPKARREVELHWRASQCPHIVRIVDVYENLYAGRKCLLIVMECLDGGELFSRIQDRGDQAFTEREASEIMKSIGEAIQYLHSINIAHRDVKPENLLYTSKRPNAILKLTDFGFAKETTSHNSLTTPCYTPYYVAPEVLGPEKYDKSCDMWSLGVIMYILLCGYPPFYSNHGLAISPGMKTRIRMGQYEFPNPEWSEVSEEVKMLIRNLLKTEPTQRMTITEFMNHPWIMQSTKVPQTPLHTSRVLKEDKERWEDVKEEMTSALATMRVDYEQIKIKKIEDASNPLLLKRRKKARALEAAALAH
Sequence of Serine/threonine-protein kinase Nek6 (Homo sapiens) (Q9HC98 whole entry): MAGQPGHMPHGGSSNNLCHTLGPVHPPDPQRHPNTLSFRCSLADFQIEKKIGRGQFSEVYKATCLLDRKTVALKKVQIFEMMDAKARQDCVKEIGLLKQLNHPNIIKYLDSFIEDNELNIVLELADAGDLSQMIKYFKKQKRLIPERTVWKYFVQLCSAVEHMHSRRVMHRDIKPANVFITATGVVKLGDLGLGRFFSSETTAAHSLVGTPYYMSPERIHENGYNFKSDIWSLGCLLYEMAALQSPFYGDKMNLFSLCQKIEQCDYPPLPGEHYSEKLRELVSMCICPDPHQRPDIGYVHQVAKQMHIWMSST
Sequence of Tyrosine-protein kinase TXK (Homo sapiens) (P42681 whole entry): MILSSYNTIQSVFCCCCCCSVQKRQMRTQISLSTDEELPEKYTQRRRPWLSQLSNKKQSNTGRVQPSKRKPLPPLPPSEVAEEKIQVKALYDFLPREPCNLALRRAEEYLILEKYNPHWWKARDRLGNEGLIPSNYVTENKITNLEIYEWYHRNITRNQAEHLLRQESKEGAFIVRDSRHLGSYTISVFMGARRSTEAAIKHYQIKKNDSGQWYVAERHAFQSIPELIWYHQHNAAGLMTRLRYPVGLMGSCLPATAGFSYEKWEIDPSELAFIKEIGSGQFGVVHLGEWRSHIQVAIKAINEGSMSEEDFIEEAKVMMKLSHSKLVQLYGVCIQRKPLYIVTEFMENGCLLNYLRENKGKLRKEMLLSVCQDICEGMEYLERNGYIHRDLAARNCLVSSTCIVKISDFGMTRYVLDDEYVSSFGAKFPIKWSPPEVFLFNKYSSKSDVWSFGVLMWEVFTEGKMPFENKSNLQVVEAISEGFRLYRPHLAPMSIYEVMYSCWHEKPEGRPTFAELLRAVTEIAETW
Sequence of Casein kinase I isoform alpha (Homo sapiens) (P48729 2-337 limits assumed): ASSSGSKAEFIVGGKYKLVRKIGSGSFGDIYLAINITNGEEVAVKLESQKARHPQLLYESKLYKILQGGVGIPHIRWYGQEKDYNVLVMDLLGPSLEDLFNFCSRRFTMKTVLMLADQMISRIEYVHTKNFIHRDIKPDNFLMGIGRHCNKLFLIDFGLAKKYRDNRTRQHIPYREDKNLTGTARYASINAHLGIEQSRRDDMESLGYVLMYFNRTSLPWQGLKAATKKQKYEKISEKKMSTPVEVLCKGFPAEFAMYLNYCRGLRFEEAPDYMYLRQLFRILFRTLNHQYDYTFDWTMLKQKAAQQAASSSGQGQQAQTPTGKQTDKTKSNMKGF

CO[C@@H](C)c1c(Nc2ccc([C@@H](N(C)C(=O)C3CCS(=O)(=O)CC3)C(F)(F)F)cc2)cnc2cc(Cl)nn12 [NVS-MALT1-C]
inactive: residual activity [1] 84% | residual activity [2] 100% | residual activity [3] 93% | residual activity [4] 100% | residual activity [5] 100% | residual activity [6] 100% | residual activity [7] 100% | residual activity [8] 83% | residual activity [9] 78% | inhibition [10] 19.2% | residual activity [11] 100% | residual activity [12] 63% | residual activity [13] 78% | residual activity [14] 98% | residual activity [15] 100% | residual activity [16] 100% | inhibition [17] 17.9% | residual activity [18] 100% | residual activity [19] 100% | residual activity [20] 87% | residual activity [21] 59% | residual activity [22] 84% | residual activity [23] 100% | residual activity [24] 88% | residual activity [25] 100% | residual activity [26] 72% | residual activity [27] 72% | residual activity [28] 89% | residual activity [29] 86% | inhibition [30] 3.2% | residual activity [31] 71% | residual activity [32] 85% | residual activity [33] 85% | residual activity [34] 91% | residual activity [35] 82% | residual activity [36] 100% | residual activity [37] 100% | residual activity [38] 100% | residual activity [39] 84% | residual activity [40] 78% | residual activity [41] 84% | residual activity [42] 96% | residual activity [43] 100%

CO[C@@H](C)c1c(Nc2ccc([C@H](N(C)C(=O)C3CCS(=O)(=O)CC3)C(F)(F)F)cc2)cnc2cc(Cl)nn12 [NVS-MALT1]
inactive: residual activity [1] 95% | residual activity [2] 91% | residual activity [3] 78% | residual activity [4] 77% | residual activity [5] 100% | residual activity [6] 82% | residual activity [7] 100% | residual activity [8] 83% | residual activity [9] 68% | inhibition [10] 27.9% | residual activity [11] 100% | residual activity [12] 75% | residual activity [13] 100% | residual activity [14] 100% | residual activity [15] 100% | residual activity [16] 100% | inhibition [17] 23.7% | residual activity [18] 90% | residual activity [19] 100% | residual activity [20] 77% | residual activity [21] 59% | residual activity [22] 88% | residual activity [23] 97% | residual activity [24] 95% | residual activity [25] 100% | residual activity [26] 51% | residual activity [27] 77% | residual activity [28] 79% | residual activity [29] 87% | inhibition [30] -6.69% | residual activity [31] 72% | residual activity [32] 79% | residual activity [33] 95% | residual activity [34] 74% | residual activity [35] 77% | residual activity [36] 100% | residual activity [37] 100% | residual activity [38] 87% | residual activity [39] 91% | residual activity [40] 96% | residual activity [41] 87% | residual activity [42] 70% | residual activity [43] 100%
